± gives the expanded uncertainty stated by the source.
Test: xn = mol fraction of the nth substance listed
Settings: 100 kPa, Liquid; for viscosity: Falling or rolling sphere viscometry; for speed of sound: Frequency=3 MHz, Sing-around technique in a fixed-path interferometer; for mass density: Vibrating tube method

CCCCO [butan-1-ol] + CO
Settings | mass density [kg/m3] | speed of sound [m/s] | viscosity [mPa·s]
293.15 K, x1 = 0.0997 | – | – | 0.7 ± 0.15
293.15 K, x1 = 0.1994 | – | – | 0.83 ± 0.15
293.15 K, x1 = 0.3068 | – | – | 0.99 ± 0.15
293.15 K, x1 = 0.3991 | – | – | 1.15 ± 0.15
293.15 K, x1 = 0.5082 | – | – | 1.36 ± 0.15
293.15 K, x1 = 0.604 | – | – | 1.57 ± 0.15
293.15 K, x1 = 0.6992 | – | – | 1.77 ± 0.15
293.15 K, x1 = 0.7994 | – | – | 2.05 ± 0.15
293.15 K, x1 = 0.9038 | – | – | 2.34 ± 0.15
293.15 K, x1 = 1 | – | – | 2.61 ± 0.15
298.15 K, x1 = 0.0997 | 791.339 ± 0.25 | 1130.6 ± 1.3 | –
298.15 K, x1 = 0.1994 | 794.665 ± 0.24 | 1150 ± 1.3 | –
298.15 K, x1 = 0.3068 | 797.503 ± 0.24 | 1169.2 ± 1.3 | –
298.15 K, x1 = 0.3991 | 799.477 ± 0.24 | 1183.5 ± 1.3 | –
298.15 K, x1 = 0.5082 | 801.494 ± 0.24 | 1197 ± 1.3 | –
298.15 K, x1 = 0.604 | 802.958 ± 0.24 | 1210.3 ± 1.3 | –
298.15 K, x1 = 0.6992 | 804.13 ± 0.24 | 1218 ± 1.3 | –
298.15 K, x1 = 0.7994 | 805.057 ± 0.24 | 1228.8 ± 1.3 | –
298.15 K, x1 = 0.9038 | 805.689 ± 0.24 | 1235.8 ± 1.3 | –
298.15 K, x1 = 1 | 806.27 ± 0.24 | 1241.1 ± 1.3 | –
303.15 K, x1 = 0.0997 | 786.81 ± 0.25 | 1114.2 ± 1.3 | 0.65 ± 0.15
303.15 K, x1 = 0.1994 | 790.266 ± 0.24 | 1133.6 ± 1.3 | 0.76 ± 0.15
303.15 K, x1 = 0.3068 | 793.243 ± 0.24 | 1152.4 ± 1.3 | 0.91 ± 0.15
303.15 K, x1 = 0.3991 | 795.305 ± 0.24 | 1166.7 ± 1.3 | 1.05 ± 0.15
303.15 K, x1 = 0.5082 | 797.42 ± 0.24 | 1180.4 ± 1.3 | 1.23 ± 0.15
303.15 K, x1 = 0.604 | 798.956 ± 0.24 | 1193.7 ± 1.3 | 1.41 ± 0.15
303.15 K, x1 = 0.6992 | 800.184 ± 0.24 | 1201.4 ± 1.3 | 1.59 ± 0.15
303.15 K, x1 = 0.7994 | 801.155 ± 0.24 | 1212.1 ± 1.3 | 1.83 ± 0.15
303.15 K, x1 = 0.9038 | 801.817 ± 0.24 | 1219.1 ± 1.3 | 2.08 ± 0.15
303.15 K, x1 = 1 | 802.42 ± 0.24 | 1224.3 ± 1.3 | 2.31 ± 0.15
308.15 K, x1 = 0.0997 | 782.263 ± 0.25 | 1097.9 ± 1.3 | 0.6 ± 0.15
308.15 K, x1 = 0.1994 | 785.837 ± 0.25 | 1117.3 ± 1.3 | 0.71 ± 0.15
308.15 K, x1 = 0.3068 | 788.95 ± 0.24 | 1136.4 ± 1.3 | 0.84 ± 0.15
308.15 K, x1 = 0.3991 | 791.101 ± 0.24 | 1150.6 ± 1.3 | 0.96 ± 0.15
308.15 K, x1 = 0.5082 | 793.315 ± 0.24 | 1163.9 ± 1.3 | 1.12 ± 0.15
308.15 K, x1 = 0.604 | 794.922 ± 0.24 | 1177.2 ± 1.3 | 1.28 ± 0.15
308.15 K, x1 = 0.6992 | 796.169 ± 0.24 | 1184.8 ± 1.3 | 1.43 ± 0.15
308.15 K, x1 = 0.7994 | 797.222 ± 0.24 | 1195.5 ± 1.3 | 1.64 ± 0.15
308.15 K, x1 = 0.9038 | 797.914 ± 0.24 | 1202.4 ± 1.3 | 1.86 ± 0.15
308.15 K, x1 = 1 | 798.536 ± 0.24 | 1207.5 ± 1.3 | 2.07 ± 0.15
313.15 K, x1 = 0.0997 | 777.683 ± 0.25 | 1081.8 ± 1.3 | 0.56 ± 0.15
313.15 K, x1 = 0.1994 | 781.397 ± 0.25 | 1101 ± 1.3 | 0.66 ± 0.15
313.15 K, x1 = 0.3068 | 784.606 ± 0.24 | 1119.8 ± 1.3 | 0.77 ± 0.15
313.15 K, x1 = 0.3991 | 786.863 ± 0.24 | 1134.2 ± 1.3 | 0.88 ± 0.15
313.15 K, x1 = 0.5082 | 789.167 ± 0.24 | 1147.5 ± 1.3 | 1.02 ± 0.15
313.15 K, x1 = 0.604 | 790.889 ± 0.24 | 1160.7 ± 1.3 | 1.18 ± 0.15
313.15 K, x1 = 0.6992 | 792.224 ± 0.24 | 1168.3 ± 1.3 | 1.29 ± 0.15
313.15 K, x1 = 0.7994 | 793.273 ± 0.24 | 1178.9 ± 1.3 | 1.47 ± 0.15
313.15 K, x1 = 0.9038 | 793.979 ± 0.24 | 1185.7 ± 1.3 | 1.66 ± 0.15
313.15 K, x1 = 1 | 794.617 ± 0.24 | 1190.9 ± 1.3 | 1.85 ± 0.15
318.15 K, x1 = 0.0997 | 773.076 ± 0.26 | 1065.7 ± 1.3 | 0.53 ± 0.15
318.15 K, x1 = 0.1994 | 776.932 ± 0.25 | 1084.9 ± 1.3 | 0.61 ± 0.15
318.15 K, x1 = 0.3068 | 780.263 ± 0.24 | 1103.6 ± 1.3 | 0.71 ± 0.15
318.15 K, x1 = 0.3991 | 782.592 ± 0.24 | 1118 ± 1.3 | 0.81 ± 0.15
318.15 K, x1 = 0.5082 | 784.996 ± 0.24 | 1131.2 ± 1.3 | 0.93 ± 0.15
318.15 K, x1 = 0.604 | 786.847 ± 0.24 | 1144.4 ± 1.3 | 1.05 ± 0.15
318.15 K, x1 = 0.6992 | 788.248 ± 0.24 | 1151.8 ± 1.3 | 1.17 ± 0.15
318.15 K, x1 = 0.7994 | 789.325 ± 0.24 | 1162.4 ± 1.3 | 1.33 ± 0.15
318.15 K, x1 = 0.9038 | 789.993 ± 0.24 | 1169.2 ± 1.3 | 1.49 ± 0.15
318.15 K, x1 = 1 | 790.655 ± 0.24 | 1174.2 ± 1.2 | 1.66 ± 0.15
323.15 K, x1 = 0.0997 | 768.447 ± 0.26 | 1049.7 ± 1.3 | 0.51 ± 0.15
323.15 K, x1 = 0.1994 | 772.448 ± 0.25 | 1068.9 ± 1.3 | 0.58 ± 0.15
323.15 K, x1 = 0.3068 | 775.921 ± 0.24 | 1087.5 ± 1.3 | 0.66 ± 0.15
323.15 K, x1 = 0.3991 | 778.306 ± 0.24 | 1101.8 ± 1.3 | 0.75 ± 0.15
323.15 K, x1 = 0.5082 | 780.936 ± 0.24 | 1115 ± 1.3 | 0.86 ± 0.15
323.15 K, x1 = 0.604 | 782.762 ± 0.24 | 1128 ± 1.3 | 0.96 ± 0.15
323.15 K, x1 = 0.6992 | 784.201 ± 0.24 | 1135.4 ± 1.3 | 1.06 ± 0.15
323.15 K, x1 = 0.7994 | 785.373 ± 0.24 | 1145.9 ± 1.3 | 1.2 ± 0.15
323.15 K, x1 = 0.9038 | 785.98 ± 0.24 | 1152.6 ± 1.3 | 1.35 ± 0.15
323.15 K, x1 = 1 | 786.645 ± 0.24 | 1157.6 ± 1.2 | 1.5 ± 0.15
